Like-named read-outs stand apart in the source and are kept apart here.

Data on two compounds can be found in patent publication US11434222B2, “MAGL inhibitors” (H. LUNDBECK A/S, priority 2020, dated 2022).

Data set [1] concerns rat formalin paw model of inflammatory pain. As to the kind of experiment: Rat formalin paw model of inflammatory pain. The data set is classed as in vivo. As for the experimental part: In the rat formalin paw model formalin is administered into the right […] of a rat in order to induce pain (observed by hind limb licking duration and frequency).
Male Sprague Dawley rats were divided into three cohorts to enable testing in the Laboras™ equipment to be carried out over three days in a balanced design to give treatment groups of 10. On the day of the study, male Sprague Dawley rats were weighed, tail marked and dosed orally with vehicle, test compound (0.1, 0.3, 0.6, 1, 3 or 10 mg/kg) or pregabalin (30 mg/kg) 4 h pre-test using a 5 mL/kg dosing volume. For Example 6 the vehicle used was 0.5% methylcellulose in water and for Example 8 the vehicle used was 20% HP-b-CD. Up to six animals were dosed at a time. After 4 h, rats received an intraplantar injection of 50 μL of a 2.5% v/v formalin solution into the right hind paw. Rats were immediately placed into the Laboras™ cages and data acquisition started. The primary measures recorded by Laboras™ for the formalin paw model are hind limb licking duration and frequency. Locomotion is also reported as maximum speed, average speed when moving or over the whole-time bin and distance travelled. After 40 min, when data acquisition was complete, rats were removed from the cages.
On removal from the test cages, rats were anaesthetised with the gaseous anaesthetic isoflu-rane (5% v/v isoflurane in oxygen) and blood samples were collected by cardiac puncture. Brains were then removed, rinsed in phosphate buffered saline (PBS), hemi-sected and frozen separately in liquid nitrogen.
Data were analysed with Statistica software (TIBCO, USA version 11.1). All data are expressed as means±standard error of the mean (sem) to one decimal place. […] Time course data were analysed by repeated measures analysis of variance (ANOVA) followed by one-way ANOVAs at each time point and subsequent Dunnett's post hoc tests. […]

Data set [2] is described as follows: Rat Kp, brain disposition after oral gavage. The data set is classed as in vivo. Particulars: for Total plasma concentration / Total blood concentration / Total brain concentration: 5 mg/kg oral gavage; for Total plasma concentration / Kp at 4 h / Kp uu at 4 h: 4 h; for Total plasma concentration: calculated from total blood concentration using blood to plasma ratio; for Total blood concentration / Total brain concentration: 4 h post dosing, mean n = 3; for Kp at 4 h / Kp uu at 4 h: male, Sprague-Dawley, po, 5 mg/kg p.o.; for Kp at 4 h: total brain concentration:total plasma concentration ratio; for Kp uu at 4 h: unbound brain concentration:unbound plasma concentration ratio. As for the experimental part:
(§1) Brain disposition was evaluated in male Sprague-Dawley rats (n=3, standard body weight). Briefly, test compound was formulated as a simple suspension, in 0.5% HPMC in water, then administered by oral gavage (5 mg/kg, 5 mL/kg). Four hours post dosing, rats were sacrificed, and terminal blood and brain samples were taken. Blood was obtained via cardiac puncture (0.1 mL) and was added into 0.4 mL CH3CN for precipitation immediately. The samples were stored at −75+/−15° C. prior to analysis. Brain tissue samples were collected after animals were fully exsanguinated, and the tissues were washed with cold saline quickly. After sectioning, brain sections were immediately frozen in liquid nitrogen and stored at −75+/−15° C. prior to analysis. Blood and brain samples were analyzed by LC/MS/MS using an optimized analytical method. Concentrations of test compound in blood and brain were quantified against matrix matched calibration standards. The total blood, plasma, and brain concentration data are presented in Table 2 alongside the calculated brain Kp (total brain concentration:total plasma concentration ratio), the calculated brain kp,uu (unbound brain concentration:unbound plasma concentration ratio), the free fractions in rat plasma and brain, and the in vitro rat blood to plasma distribution profile. The total plasma concentration data were calculated from the total blood concentration data using rat blood to plasma ratio which was measured in vitro (1 μM test compound). For kp,uu determination, the free fraction in rat plasma and brain homogenate were measured in vitro by standard equilibrium dialysis (1 μM test compound and 6 h equilibration against buffer pH 7.4; for rat plasma analysis, 100 mM stock solution of diisopropyl fluorophosphate was added to the pre-warmed rat plasma prior to adding test article).

Data set [3] is described as follows: Free fraction in rat plasma and brain homogenate by equilibrium dialysis. The data set is classed as in vitro ADME. Here is the method: as §1
For orientation: In equilibrium dialysis only unbound substance equilibrates across the membrane.

Data set [4] can be described thus: Kinetic solubility in PBS. The data set is classed as physicochemical. The settings on record: aqueous buffer, kinetic from dmso stock. Put shortly:
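Solubility measured in PBS at pH 2.0 and pH 7.4, in duplicate, starting from 10 mM DMSO stock; shaken 2 h at RT at 1,100 RPM. Filtrate diluted and quantified by LC-MS/MS (positive MRM) against a DMSO standard of known concentration.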

Setting [5] is: rat brain homogenate, buffer pH 7.4, read-out: Rat brain free fraction.
Setting [6] is: rat plasma, buffer pH 7.4, read-out: Rat plasma free fraction.
Setting [7] is: PBS pH 2.0, RT, read-out: pH 2 Solubility (kinetic).
The mark [8] stands for this setting: PBS pH 7.4, RT, read-out: pH 7.4 Solubility (kinetic).

What is called Kp is tissue or fluid exposure divided by exposure in the circulation. Usually kinetic solubility stands for the concentration staying in solution when a stock, usually in DMSO, is diluted into the medium. Turning to `O=C(Nc1cccnn1)[C@H]1CC12CCN(C(=O)OC(C(F)(F)F)C(F)(F)F)CC2` [Example 6, 1,1,1,3,3,3-hexafluoropropan-2-yl (S)-1-(pyridazin-3-ylcarbamoyl)-6-azaspiro[2.5]octane-6-carboxylate], the “measure of spontaneous pain (hind limb licking frequency)” value (from here on “measure of spontaneous pain”) in data set [1] (0.6 mg/kg, 3 mg/kg and 10 mg/kg p.o. 4 h pre-test, early and/or late phases, FIG. 1) is “statistically significant reduction”. Moreover, in data set [2], the Total plasma concentration is 0.576 µM, the Total blood concentration was 0.415 µM, the Total brain concentration was 1.78 µM and the Kp at 4 h was 3.09. For the same compound, the Kp uu at 4 h in data set [2] stood at 2.25. Also, the fraction unbound at 6 h, 1 μM in data set [3] (setting [5]) amounted to 0.04. The fraction unbound at 6 h, 1 μM in data set [3] (setting [6]) turned out to be 0.055. Moreover, the solubility (kinetic) at 2 h in data set [4] (setting [7]) turned out to be 240 µM. Further, the solubility (kinetic) at 2 h in data set [4] (setting [8]) worked out at 106 µM.
With `O=C(NC1CCOCC1)[C@H]1CC12CCN(C(=O)OC(C(F)(F)F)C(F)(F)F)CC2` [Example 8, 1,1,1,3,3,3-hexafluoropropan-2-yl (S)-1-[(oxan-4-yl)carbamoyl]-6-azaspiro[2.5]octane-6-carboxylate], the “measure of spontaneous pain” value in data set [1] (0.3 mg/kg and 0.6 mg/kg p.o. 4 h pre-test, late phase, FIG. 2) is recorded as “statistically significant reduction”. For the same compound, the “measure of spontaneous pain” value in data set [1] (1 mg/kg, 3 mg/kg and 10 mg/kg p.o. 4 h pre-test, both early and late phases, FIG. 2) is recorded as “statistically significant reduction”. In addition, in data set [2], the Total plasma concentration is 0.124 µM, the Total blood concentration turned out to be 0.119 µM, the Total brain concentration worked out at 0.255 µM and the Kp at 4 h amounted to 2.06. Further, the Kp uu at 4 h in data set [2] turned out to be 0.801. In addition, in data set [3] (setting [5]), the fraction unbound at 6 h, 1 μM was 0.167. For the same compound, the fraction unbound at 6 h, 1 μM in data set [3] (setting [6]) turned out to be 0.427. Further, the solubility (kinetic) at 2 h in data set [4] (setting [7]) was 308 µM. Further, the kinetic solubility at 2 h in data set [4] (setting [8]) was 256 µM.
